Consider four compounds from BindingDB's records for doi:10.1016/j.bmc.2005.01.048 (Pfizer, 2005).

pIC50: −log10 of the molar value.

The test concerns the target T1, Renin (Homo sapiens, UniProt P00797).
T1 sequence (P00797 whole entry): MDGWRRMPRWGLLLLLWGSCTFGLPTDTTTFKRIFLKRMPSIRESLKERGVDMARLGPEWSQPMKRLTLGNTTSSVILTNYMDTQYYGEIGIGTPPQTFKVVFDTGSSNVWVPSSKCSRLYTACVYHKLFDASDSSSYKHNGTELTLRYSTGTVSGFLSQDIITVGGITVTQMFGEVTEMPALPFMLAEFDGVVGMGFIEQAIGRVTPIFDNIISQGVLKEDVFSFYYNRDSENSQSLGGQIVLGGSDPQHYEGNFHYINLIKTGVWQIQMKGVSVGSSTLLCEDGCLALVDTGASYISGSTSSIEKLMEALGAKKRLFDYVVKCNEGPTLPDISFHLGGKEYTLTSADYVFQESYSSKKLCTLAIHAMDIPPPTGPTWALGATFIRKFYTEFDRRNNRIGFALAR
The test is described as follows: In Vitro Renin IC50 Determinations (Tandem GFP FRET Assay). Particulars: pH 7.4; 22 °C. The text has this:
The renin assay utilized a tandem Green Flourescent Protein (tGFP) substrate that was hydrolyzed by human rennin. The tGFP substrate contained a nine amino acid (Ile-His-Pro-Phe-His-Leu-Val-Ile-His) recognition sequence for human renin flanked by two GPF proteins (W1B and Topaz). Human rennin cleaves the leucine-valine site of the substrate linker. Once cleaved, the emission ratio changes. The change was monitored by the ratio of 530 nm (topaz) over 475 nm (W1B) with the excitation set at 432 nm and the cutoff at 515 nm. The assay used a 384 well plate format that was read using a Gemini XS Fluorometric plate reader (Molecular Devices). Compounds were screened at a starting concentration of 10 uM and used a fourfold eleven-point dilution regiment.
Broadly, the pIC50 is the negative decadic logarithm of the IC50, by convention in mol/L. A higher pIC50 goes with a low IC50. In turn, `COc1ccccc1COCCCOc1ccc(N2CCNC[C@@H]2COCc2ccc(-c3ccccc3)cc2)cc1` [(2R)-1-(4-{3-[(2-methoxyphenyl)methoxy]propoxy}phenyl)-2-{[(4-phenylphenyl)methoxy]methyl}piperazine] showed a negative-log IC50 (pIC50) of 5.99.
For `COc1ccccc1COCCCOc1ccc(N2C(=O)CNC[C@@H]2COc2ccc3c(c2)N(CCNC(C)=O)CCC3)cc1` the value was 9.52; for `COc1ccccc1COCCCOc1ccc(N2CCNC[C@@H]2COc2ccc3c(c2)N(CCNC(C)=O)CCC3)cc1` [N-[2-(7-{[(2R)-1-(4-{3-[(2-methoxyphenyl)methoxy]propoxy}phenyl)piperazin-2-yl]methoxy}-1,2,3,4-tetrahydroquinolin-1-yl)ethyl]acetamide], 9.30; for `COc1ccccc1COCCCOc1ccc(N2CCNC[C@@H]2COc2ccc3ccccc3c2)cc1` [(2R)-1-(4-{3-[(2-methoxyphenyl)methoxy]propoxy}phenyl)-2-[(naphthalen-2-yloxy)methyl]piperazine], 6.74.
